Data as given in patent publication US10570099B2, “Salts of an epidermal growth factor receptor kinase inhibitor” (Celgene CAR LLC, priority 2012, dated 2020).

Experiments:
[1] = Shake flask solubility of potential salts in aqueous medium (pH<2); format: physicochemical; conditions: pH<2, ca. 24 hours shaking, HPLC
Procedure: The solubility of the potential salts was tested using a shake flask method whereby a slurry of each salt was prepared in deionized water and the pH of the reaction was reduced to below pH 2 by adding a small amount of the counterion used for salt formation. The pH was tested using universal indicator paper.
(§1) (open vials). TGA was carried out after the stability studies for samples containing sufficient material.

[2] = 1 week stability of primary screen salts at 40° C./75% RH and 80° C. (open vials, XRPD); format: physicochemical
Procedure: as §1

[3] = Dog PK Study 1 (cross-over, fasted); format: in vivo, beagle dogs; conditions: male, beagle, po, plasma compound 1, fasted dogs, capsule orally 28.5 mg/kg, dog #3 excluded
Procedure: Compound 1 free base and compound 2, as the Form I monohydrobromide (HBr) salt, were evaluated in a cross-over dog PK study. Compound 1 free base capsule consisted of compound 1 free base in Vitamin E TPGS and PEG 400 filled into a capsule. The Form I hydrobromide salt capsule consisted of Form I HBr alone filled into a capsule.
Compound 1 free base capsule and Form I HBr capsule were dosed orally at 28.5 and 24.5 mg/kg (as active) QD, respectively, to three fasted male non-naïve beagle dogs (body weight range: 10.1-10.8 kg) with a 5-day washout period. Approximately 5 mL of tap water was orally administered to encourage swallowing and ensure delivery of capsules into the stomach. Plasma samples were collected at pre-dose and 0.5, 1, 2, 4, 6, 8, 12 and 24 hours post dose. The plasma concentrations of compound 1 were determined by a liquid chromatography-tandem mass spectrometry (LC/MS/MS) method.

[4] = Dog PK Study 2 (gastric pH adjustment, food effect); format: in vivo, beagle dogs; conditions: 30 mg/kg, plasma compound 1, dogs (n = 3), capsule orally 30 mg/kg, fasted, mean (% CV)
Procedure: Compound 1 free base and compound 2, as the Form I monohydrobromide (HBr) salt, were evaluated in a cross-over dog PK study in which male dogs were pre-treated with either pentagastrin (to decrease gastric pH) or famotidine (to increase gastric pH) prior to oral dosing to control gastric pH. In addition, the effect of food on the systemic exposure to compound 1 was also evaluated in dogs receiving Form I HBr with pentagastrin pre-treatment. Compound 1 free base capsule consisted of compound 1 free base in Vitamin E TPGS and PEG 400 filled into a capsule. The Form I hydrobromide salt capsule consisted of Form I HBr alone filled into a capsule.
There was a minimum 6-day washout between dosing. On the day of dosing under fed condition, dogs were given 60 gram of a high fat diet (Harlan Teklad 2027C) and allowed to consume all of the food within 15-20 minutes. The animals were given a 10-minute rest period and then the capsule doses were administered. Plasma samples were collected at pre-dose and 0.5, 1, 2, 4, 6, 8, 12 and 24 hours post dose.

Compound | Approximate Solubility [1] | Stability 40° C./75% RH (open conditions) [2] | Stability 80° C. (open conditions) [2] | Cmax ([3]; mean) [ng/mL] | half-life ([3]; mean) [h] | AUC(0-t) ([3]; mean, read-out: AUC0-24) [ng·h/mL] | Tmax ([3]; median) [h] | AUC(0-t) ([4]; male, beagle, dog, plasma, po, Pentagastrin, read-out: AUC0-24) [ng·h/mL] | Cmax ([4]; male, beagle, dog, plasma, po, Pentagastrin, read-out: Cmax) [ng/mL] | AUC0-24 ([4]; Famotidine) | Cmax ([4]; Famotidine)
C=CC(=O)Nc1cccc(Nc2nc(Nc3ccc(N4CCN(C(C)=O)CC4)cc3OC)ncc2C(F)(F)F)c1.O=C(O)c1c(O)cc(O)cc1O [2,4,6-Trihydroxybenzoate Form II] | Below LOQ |  |  |  |  |  |  |  |  |  | 
C=CC(=O)Nc1cccc(Nc2nc(Nc3ccc(N4CCN(C(C)=O)CC4)cc3OC)ncc2C(F)(F)F)c1.O=C(O)c1c(O)cc(O)cc1O [2,4,6-Trihydroxybenzoate Form I] | Below LOQ | No form change, | No form change, |  |  |  |  |  |  |  | 
C=CC(=O)Nc1cccc(Nc2nc(Nc3ccc(N4CCN(C(C)=O)CC4)cc3OC)ncc2C(F)(F)F)c1 [Compound 1 (Free Base)] |  |  |  | 120 | 2.1 | 278 | 1 | 7810 | 1820 | 163 (3%) ng · h/mL | 57 (24%) ng/mL
